Laboratory results published in patent EP0454367B1, “Growth hormone releasing factor analogs” (ELI LILLY AND COMPANY, priority 1990, dated 1991).
Starred links: 1 amine or outer side, 2 acyl side, 3 side chain; linkers in the order of their positions; H or OH if unused. Non-standard residues stand in square brackets, D forms with d. Residues, ends and D or L forms follow the SMILES beside them. *: point of attachment. X3 = O=C([C@H](Cc1ccc(O)cc1)N(CC(O)CO)[*:1])[*:2]; X2 = C[C@@H](C(=O)[*:2])N(CC(O)CO)[*:1]; X1 = O=C([C@@H]1CCCN1CC(O)CO)*; NMeA = CN[C@@H](C)C(=O)O

biological target: T1, Rat Pituitary Cells (Rattus norvegicus, UniProt Q02644); test: GRF-analog mediated GH secretion from rat pituitary cells (method of Heiman et al.); type: cell-based; conditions: EC50 [R^12,T^15,R^21,L^27]hGRF(1-29)NH2 / EC50 analog
T1 sequence (Q02644 23-464): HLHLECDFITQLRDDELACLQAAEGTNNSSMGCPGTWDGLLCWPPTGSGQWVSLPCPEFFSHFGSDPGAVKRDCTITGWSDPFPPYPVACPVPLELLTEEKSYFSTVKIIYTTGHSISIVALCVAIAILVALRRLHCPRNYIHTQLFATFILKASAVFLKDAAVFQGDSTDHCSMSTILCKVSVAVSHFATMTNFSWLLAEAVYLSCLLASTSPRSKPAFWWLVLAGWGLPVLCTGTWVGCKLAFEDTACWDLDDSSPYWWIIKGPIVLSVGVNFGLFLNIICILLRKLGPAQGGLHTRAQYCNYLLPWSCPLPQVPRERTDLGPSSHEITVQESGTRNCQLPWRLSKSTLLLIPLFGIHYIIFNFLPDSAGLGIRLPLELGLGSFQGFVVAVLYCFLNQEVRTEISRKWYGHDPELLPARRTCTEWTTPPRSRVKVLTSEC
Procedure: The polypeptide compounds of the invention may be assayed in numerous systems. One in vivo assay is carried out in sodium pentobarbital-anesthetized rats. Wehrenberg et al., Biochem. Biophys. Res. Commun. 109:382 (1982). Growth hormone release is measured in vitro with rat anterior pituitary cells. Heiman et al., Endocrinol. 116:410 (1985). Assays are also performed in wether lambs as described in the Examples provided hereinafter.
Various bGRF peptide analogs were synthesized by the solid phase synthesis method as described in U.S. Patent 4,617,149. The compounds were assayed in rat pituitary cells by the method of Heiman et al., Endocrinol. 116:410 (1985). The analogs are based on the sequence of the first 29 amino acids of human growth hormone releasing factor with the substitutions listed.

Row | Relative Potency (% of std) | Structure (SMILES)
1 | .335 % of std | CC[C@H](C)[C@H](NC(=O)[C@H](C)NC(=O)[C@H](CC(=O)O)NC(=O)[C@H](C)NC(=O)[C@H](Cc1ccc(O)cc1)NC(=O)[C@H](C)NCC(O)CO)C(=O)N[C@@H](Cc1ccccc1)C(=O)N[C@H](C(=O)N[C@@H](CC(N)=O)C(=O)N[C@@H](CO)C(=O)N[C@@H](Cc1ccc(O)cc1)C(=O)N[C@@H](CCCNC(=N)N)C(=O)N[C@@H](CCCNC(=N)N)C(=O)N[C@H](C(=O)N[C@@H](CC(C)C)C(=O)N[C@H](C(=O)N[C@@H](CCC(N)=O)C(=O)N[C@@H](CC(C)C)C(=O)N[C@@H](CO)C(=O)N[C@@H](C)C(=O)N[C@@H](CCCNC(=N)N)C(=O)N[C@@H](CCCNC(=N)N)C(=O)N[C@@H](CC(C)C)C(=O)N[C@@H](CC(C)C)C(=O)N[C@@H](CCC(N)=O)C(=O)N[C@@H](CC(=O)O)C(=O)N[C@H](C(=O)N[C@@H](CC(C)C)C(=O)N[C@@H](CO)C(=O)N[C@@H](CCCNC(=N)N)C(N)=O)[C@@H](C)CC)[C@@H](C)O)C(C)C)[C@@H](C)O (some centres unmarked) [DHP[A^0,R^12,T^15,R^21,L^27]hGRF(1-29)NH2] (H-[X2]YADAIFTNSYRRVLTQLSARRLLQDILSR-NH2)
2 | .13 % of std | CC[C@H](C)[C@H](NC(=O)[C@H](C)NC(=O)[C@H](CC(=O)O)NC(=O)[C@H](C)NC(=O)[C@H](Cc1ccc(O)cc1)NC(=O)[C@@H]1CCCN1CC(O)CO)C(=O)N[C@@H](Cc1ccccc1)C(=O)N[C@H](C(=O)N[C@@H](CC(N)=O)C(=O)N[C@@H](CO)C(=O)N[C@@H](Cc1ccc(O)cc1)C(=O)N[C@@H](CCCNC(=N)N)C(=O)N[C@@H](CCCNC(=N)N)C(=O)N[C@H](C(=O)N[C@@H](CC(C)C)C(=O)N[C@H](C(=O)N[C@@H](CCC(N)=O)C(=O)N[C@@H](CC(C)C)C(=O)N[C@@H](CO)C(=O)N[C@@H](C)C(=O)N[C@@H](CCCNC(=N)N)C(=O)N[C@@H](CCCNC(=N)N)C(=O)N[C@@H](CC(C)C)C(=O)N[C@@H](CC(C)C)C(=O)N[C@@H](CCC(N)=O)C(=O)N[C@@H](CC(=O)O)C(=O)N[C@H](C(=O)N[C@@H](CC(C)C)C(=O)N[C@@H](CO)C(=O)N[C@@H](CCCNC(=N)N)C(N)=O)[C@@H](C)CC)[C@@H](C)O)C(C)C)[C@@H](C)O (some centres unmarked) [DHP[P^0,R^12,T^15,R^21,L^27]hGRF(1-29)NH2] (X1-YADAIFTNSYRRVLTQLSARRLLQDILSR-NH2)
3 | .14 % of std | CC[C@H](C)[C@H](NC(=O)[C@H](C)NC(=O)[C@H](CC(=O)O)NC(=O)[C@H](C)NC(=O)[C@H](Cc1ccc(O)cc1)NC(=O)[C@@H]1CCCN1C(=O)[C@@H]1CCCN1CC(O)CO)C(=O)N[C@@H](Cc1ccccc1)C(=O)N[C@H](C(=O)N[C@@H](CC(N)=O)C(=O)N[C@@H](CO)C(=O)N[C@@H](Cc1ccc(O)cc1)C(=O)N[C@@H](CCCNC(=N)N)C(=O)N[C@@H](CCCNC(=N)N)C(=O)N[C@H](C(=O)N[C@@H](CC(C)C)C(=O)N[C@H](C(=O)N[C@@H](CCC(N)=O)C(=O)N[C@@H](CC(C)C)C(=O)N[C@@H](CO)C(=O)N[C@@H](C)C(=O)N[C@@H](CCCNC(=N)N)C(=O)N[C@@H](CCCNC(=N)N)C(=O)N[C@@H](CC(C)C)C(=O)N[C@@H](CC(C)C)C(=O)N[C@@H](CCC(N)=O)C(=O)N[C@@H](CC(=O)O)C(=O)N[C@H](C(=O)N[C@@H](CC(C)C)C(=O)N[C@@H](CO)C(=O)N[C@@H](CCCNC(=N)N)C(N)=O)[C@@H](C)CC)[C@@H](C)O)C(C)C)[C@@H](C)O (some centres unmarked) [DHP[P^-1,P^0,R^12,T^15,R^21,L^27]hGRF(1-29)NH2] (X1-PYADAIFTNSYRRVLTQLSARRLLQDILSR-NH2)
4 | .8 % of std | CC[C@H](C)[C@H](NC(=O)[C@H](C)NC(=O)[C@H](CC(=O)O)NC(=O)[C@H](C)NC(=O)[C@H](Cc1ccc(O)cc1)NCC(O)CO)C(=O)N[C@@H](Cc1ccccc1)C(=O)N[C@H](C(=O)N[C@@H](CC(N)=O)C(=O)N[C@@H](CO)C(=O)N[C@@H](Cc1ccc(O)cc1)C(=O)N[C@@H](CCCNC(=N)N)C(=O)N[C@@H](CCCNC(=N)N)C(=O)N[C@H](C(=O)N[C@@H](CC(C)C)C(=O)N[C@H](C(=O)N[C@@H](CCC(N)=O)C(=O)N[C@@H](CC(C)C)C(=O)N[C@@H](CO)C(=O)N[C@@H](C)C(=O)N[C@@H](CCCNC(=N)N)C(=O)N[C@@H](CCCNC(=N)N)C(=O)N[C@@H](CC(C)C)C(=O)N[C@@H](CC(C)C)C(=O)N[C@@H](CCC(N)=O)C(=O)N[C@@H](CC(=O)O)C(=O)N[C@H](C(=O)N[C@@H](CC(C)C)C(=O)N[C@@H](CO)C(=O)N[C@@H](CCCNC(=N)N)C(N)=O)[C@@H](C)CC)[C@@H](C)O)C(C)C)[C@@H](C)O (some centres unmarked) [DHP[R^12,T^15,R^21,L^27]hGRF(1-29)NH2] (H-[X3]ADAIFTNSYRRVLTQLSARRLLQDILSR-NH2)
5 | .17 % of std | CC[C@H](C)[C@H](NC(=O)[C@H](C)NC(=O)[C@H](CC(=O)O)NC(=O)[C@H](C)NC(=O)[C@H](Cc1ccc(O)cc1)NC(=O)[C@H](C)NC)C(=O)N[C@@H](Cc1ccccc1)C(=O)N[C@H](C(=O)N[C@@H](CC(N)=O)C(=O)N[C@@H](CO)C(=O)N[C@@H](Cc1ccc(O)cc1)C(=O)N[C@@H](CCCNC(=N)N)C(=O)N[C@@H](CCCNC(=N)N)C(=O)N[C@H](C(=O)N[C@@H](CC(C)C)C(=O)N[C@H](C(=O)N[C@@H](CCC(N)=O)C(=O)N[C@@H](CC(C)C)C(=O)N[C@@H](CO)C(=O)N[C@@H](C)C(=O)N[C@@H](CCCNC(=N)N)C(=O)N[C@@H](CCCNC(=N)N)C(=O)N[C@@H](CC(C)C)C(=O)N[C@@H](CC(C)C)C(=O)N[C@@H](CCC(N)=O)C(=O)N[C@@H](CC(=O)O)C(=O)N[C@H](C(=O)N[C@@H](CC(C)C)C(=O)N[C@@H](CO)C(=O)N[C@@H](CCCNC(=N)N)C(N)=O)[C@@H](C)CC)[C@@H](C)O)C(C)C)[C@@H](C)O [[N-Me-A^0,R^12,T^15,R^21,L^27]hGRF(1-29)NH2] (H-[NMeA]YADAIFTNSYRRVLTQLSARRLLQDILSR-NH2)
